Assay results published in PMC8344252, “Carbonic anhydrase activation profile of indole-based derivatives” (Journal of Enzyme Inhibition and Medicinal Chemistry, 2021).

What was measured:
[1] = target: hCA I (Homo sapiens, UniProt P00915); assay: CA activation, stopped-flow CO2 hydrase assay; assay type: biochemical; conditions: activation constant; mean from 3 assays, errors ±5–10%
Protocol: (§1) A stopped-flow method[38] has been used for assaying the CA catalysed CO2 hydration activity with Phenol red as indicator, working at the absorbance maximum of 557 nm, following the initial rates of the CA-catalysed CO2 hydration reaction for 10–100 s. For each activator, at least six traces of the initial 5–10% of the reaction have been used for determining the initial velocity. The uncatalyzed rates were determined in the same manner and subtracted from the total observed rates. Stock solutions of activator (0.1 mM) were prepared in distilled-deionized water and dilutions up to 0.1 nM were done thereafter with the assay buffer. The activation constant (KA), defined similarly with the inhibition constant (KI), was obtained by considering the classical Michaelis–Menten equation (Equation (3), which has been fitted by nonlinear least squares by using PRISM 3: v=vmax/{1+KM/[S](1+[A]f/KA)} (3) [drawing 4] where [A]f is the free concentration of activator.
(§2) Working at substrate concentrations considerably lower than KM ([S]≪KM), and considering that [A]f can be represented in the form of the total concentration of the enzyme ([E]t) and activator ([A]t), the obtained competitive steady-state equation for determining the activation constant is given by Equation 4: v=v0KA/{KA+[A]t–0.5{([A]t+[E]t+ KA)–([A]t+[E]t+ KA)^2–4[A]t[E]t^1/2}} (4) [drawing 5] where v0 represents the initial velocity of the enzyme-catalysed reaction in the absence of an activator[39–42]. Enzyme concentrations in the assay system were in the range of 6.5–12.0 nM.

[2] = target: hCA VII (Homo sapiens, UniProt P43166); assay: CA activation, stopped-flow CO2 hydrase assay; assay type: biochemical; conditions: activation constant; mean from 3 assays, errors ±5–10%
Chain of hCA VII (P43166 whole entry): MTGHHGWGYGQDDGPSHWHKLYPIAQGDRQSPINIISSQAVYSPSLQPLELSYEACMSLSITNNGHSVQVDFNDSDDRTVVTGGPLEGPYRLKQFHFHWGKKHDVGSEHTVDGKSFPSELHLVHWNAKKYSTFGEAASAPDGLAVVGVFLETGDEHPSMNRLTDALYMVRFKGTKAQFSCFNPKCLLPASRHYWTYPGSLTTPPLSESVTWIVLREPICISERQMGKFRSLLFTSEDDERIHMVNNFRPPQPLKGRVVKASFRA
Protocol: as §1, §2

[3] = target: hCA VA (Homo sapiens, UniProt P35218); assay: CA activation, stopped-flow CO2 hydrase assay; assay type: biochemical; conditions: for KA ratio [hCA VA/hCA VII]: KA ratio for the indicated enzyme isoforms, value in square brackets; for KA hCA VA: activation constant, mean from 3 assays, errors ±5–10%; for hCA VA activation, judged in words: text comment on KA values
Chain of hCA VA (P35218 39-305): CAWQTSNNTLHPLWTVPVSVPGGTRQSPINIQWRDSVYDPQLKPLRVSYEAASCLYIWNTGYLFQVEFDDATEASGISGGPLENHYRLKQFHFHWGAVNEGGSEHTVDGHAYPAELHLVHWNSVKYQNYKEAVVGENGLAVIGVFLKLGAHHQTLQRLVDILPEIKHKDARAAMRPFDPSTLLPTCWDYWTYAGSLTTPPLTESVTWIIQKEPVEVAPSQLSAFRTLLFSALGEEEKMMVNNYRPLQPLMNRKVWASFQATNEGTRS
Protocol: as §1, §2

[4] = target: hCA II (Homo sapiens, UniProt P00918); assay: CA activation, stopped-flow CO2 hydrase assay; assay type: biochemical; conditions: for KA ratio [hCA II/hCA VII]: KA ratio for the indicated enzyme isoforms, value in square brackets; for KA hCA II: activation constant, mean from 3 assays, errors ±5–10%
Protocol: as §1, §2

[5] = system: C20 human microglial cell line; assay: Cell viability (MTS) assay; assay type: cell-based; conditions: 24 h; for Cell viability of C20 cells: highest tested concentration (10 µM), vs vehicle (DMSO) control
Protocol: (§3) All materials for cell culturing were obtained by Corning, New York, USA, and all used reagents were purchased by Sigma-Aldrich (Saint Louis, MO, USA). The human microglial cell line C20, originally generated by David Alvarez-Carbonell et al.[52], was grown in DMEM-F12 medium supplemented with 10% of FBS, 100 U/mL penicillin, 0.1 mg/mL streptomycin, and neomycin (600 μg/mL), as a selector of the immortalised telomerase-expressing cells. Cells were kept at 37 °C under a humidified atmosphere with […] and 5% CO2. Viable cells (identified by counting trypan-blue-excluding cellular elements) were plated at a density of 100,000 cells each well in a 24-well plate. To evaluate the ability of target compounds to modulate the cellular viability and brain-derived neurotrophic factor (BDNF) release, C20 cells were challenged with CAAs.
C20 cells were seeded in 96-well microplates at a density of 5000 cells/well and maintained in complete culture media. The day after the seed, cells were treated with CAAs 7, 8, and 9 for 24 h (1 and 10 µM). The cell viability was determined using the [3–(4,5-dimethylthiazol-2-yl)-5–(3-carboxymethoxyphenol)-2–(4-sulfophenyl)-2H-tetrazolium, inner salt] (MTS) assay according to the manufacturer’s instructions (Promega, Milano, Italy). This tetrazolium dye can be reduced by the metabolic reducing agents NADH and NADPH to a water-soluble formazan salt. The amount of formazan produced is considered to be a marker of cell viability. The MTS reagent was added to treated C20 cells and the colorimetric conversion of formazane was quantified after 1 h by measuring the absorbance at 490 nm (EnSightTM multimode plate reader, equipped with Kaleido Data Acquisition and Analysis Software).

[6] = system: BDNF release from C20 human microglial cells; assay: BDNF enzyme-linked immunosorbent assay on conditioned medium; assay type: cell-based; conditions: 10 µM, 2 h treatment, medium collected after 24 h, ELISA, normalised on crystal violet
Protocol: as §3, with “To evaluate the ability of target compounds to modulate the cellular viability and brain-derived neurotrophic factor (BDNF) release, C20 cells were challenged with CAAs.” left out
C20 cells were seeded in 24-well microplates at a density of 100,000 cells/well and maintained in complete culture media. […] At the end of the 24 h, the levels of BDNF were measured in the C20 conditioned medium using an enzyme-linked immunosorbent assay (ELISA) Kit (SEA011Mi 96 Tests, Cloude-Clone Corp., CCC, USA), accordingly to manufacture instructions. […] The enzyme-substrate reaction was terminated by the addition of sulphuric acid solution and the colour change was measured spectrophotometrically at a wavelength of 450 nm ± 10 nm. The concentration of BDNF in the samples was then determined by comparing the O.D. of the samples to the standard curve. […]

Chain of hCA I (P00915 whole entry): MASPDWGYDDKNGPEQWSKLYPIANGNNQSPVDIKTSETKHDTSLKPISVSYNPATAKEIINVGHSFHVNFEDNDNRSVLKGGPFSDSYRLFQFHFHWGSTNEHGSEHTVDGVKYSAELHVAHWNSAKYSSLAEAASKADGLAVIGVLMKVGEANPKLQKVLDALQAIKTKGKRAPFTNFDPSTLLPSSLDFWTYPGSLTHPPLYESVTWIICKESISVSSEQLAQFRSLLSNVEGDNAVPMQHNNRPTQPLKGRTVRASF

Question: Which results are given for CN(C)CCCOc1ccc2c(c1)c(C(=O)NCCO)cn2Cc1ccccc1 [Compound 5, 5-(3-(Dimethylamino)propoxy)-1-benzyl-N-(2-hydroxyethyl)-1H-indole-3-carboxamide]?
Answer: KA hCA I [1]: > 100 µM; KA hCA VII [2]: 10.4 µM; KA ratio [hCA VA/hCA VII] [3]: 2.7; KA hCA VA [3]: 28.0 µM; KA ratio [hCA II/hCA VII] [4]: > 9.6; KA hCA II [4]: > 100 µM

Question: Which results are given for CCN(CC)CCNC(=O)C(=O)c1cn(Cc2ccccc2)c2ccc(OCCO)cc12 [Compound 2, 2-(5-(2-Hydroxyethoxy)-1-benzyl-1H-indol-3-yl)-N-(2-(diethylamino)ethyl)glyoxylamide]?
Answer: KA hCA I [1]: 88.9 µM; KA hCA VII [2]: 10.0 µM; KA ratio [hCA VA/hCA VII] [3]: 2.9; KA hCA VA [3]: 28.7 µM; KA ratio [hCA II/hCA VII] [4]: > 10.0; KA hCA II [4]: > 100 µM

Question: What does the source list for CCOC(=O)c1cn(Cc2ccccc2)c2ccc(OCCN(C)C)cc12 [Compound 9, Ethyl 5-(2-(dimethylamino)ethoxy)-1-benzyl-1H-indole-3-carboxylate]?
Answer: melting point: 69 to 71 °C; Cell viability of C20 cells [5]: slight, although not statistically significant, reduction in cell viability; KA hCA I [1]: > 100 µM; KA hCA VII [2]: 8.2 µM; KA ratio [hCA VA/hCA VII] [3]: 3.5; KA hCA VA [3]: 29.1 µM; KA ratio [hCA II/hCA VII] [4]: > 12.2; KA hCA II [4]: > 100 µM

Question: Which results are given for CCOC(=O)c1cn(Cc2ccccc2)c2ccc(OCCCN(C)C)cc12 [Compound 8, Ethyl 5-(3-(dimethylamino)propoxy)-1-benzyl-1H-indole-3-carboxylate]?
Answer: melting point: 58 to 60 °C; Cell viability of C20 cells [5]: slight, although not statistically significant, reduction in cell viability; KA hCA I [1]: 69.1 µM; KA hCA VII [2]: 7.2 µM; KA ratio [hCA VA/hCA VII] [3]: 8.3; KA hCA VA [3]: 59.8 µM; hCA VA activation, judged in words [3]: poor activity; KA ratio [hCA II/hCA VII] [4]: > 13.9; KA hCA II [4]: > 100 µM

Question: Which melting point does the source give for CCN(CC)CCOc1ccc2c(c1)c(C(=O)C(=O)NCCO)cn2Cc1ccccc1 [Compound 4, 2-(5-(2-(Diethylamino)ethoxy)-1-benzyl-1H-indol-3-yl)-N-(2-hydroxyethyl)glyoxamide] here?
Answer: 116 to 118 °C

Question: What about the “KA hCA I” value [1] of the same compound?
Answer: > 100 µM

Question: And the “KA hCA VII” value [2]?
Answer: 9.1 µM

Question: And the “KA ratio [hCA VA/hCA VII]” value [3]?
Answer: 3.8

Question: What about the “KA hCA VA” value [3] of the same compound?
Answer: 34.4 µM

Question: What about the “KA ratio [hCA II/hCA VII]” value [4] of the same compound?
Answer: > 11.0

Question: And the “KA hCA II” value [4]?
Answer: > 100 µM

Question: Which “KA hCA I” value [1] does the source give for CN(C)CCOc1ccc2c(c1)c(C(=O)NCCO)cn2Cc1ccccc1 [Compound 6, 5-(2-(Dimethylamino)ethoxy)-1-benzyl-N-(2-hydroxyethyl)-1H-indole-3-carboxamide] here?
Answer: > 100 µM

Question: What about the “KA hCA VII” value [2] of the same compound?
Answer: 10.7 µM

Question: And the “KA ratio [hCA VA/hCA VII]” value [3]?
Answer: 2.5

Question: What about the “KA hCA VA” value [3] of the same compound?
Answer: 26.8 µM

Question: And the “KA ratio [hCA II/hCA VII]” value [4]?
Answer: > 9.3

Question: What about the “KA hCA II” value [4] of the same compound?
Answer: > 100 µM

Question: Which results are given for CN(C)CCCNC(=O)C(=O)c1cn(Cc2ccccc2)c2ccc(OCCO)cc12 [Compound 1, 2-(5-(2-Hydroxyethoxy)-1-benzyl-1H-indol-3-yl)-N-(3-(dimethylamino)propyl)glyoxylamide]?
Answer: KA hCA I [1]: > 100 µM; KA hCA VII [2]: 10.8 µM; KA ratio [hCA VA/hCA VII] [3]: 2.3; KA hCA VA [3]: 25.0 µM; KA ratio [hCA II/hCA VII] [4]: > 9.3; KA hCA II [4]: > 100 µM

Question: Which results are given for CCN(CC)CCOc1ccc2c(c1)c(C(=O)NCc1ccccc1)cn2Cc1ccccc1 [Compound 7, 5-(2-(Diethylamino)ethoxy)-N,1-dibenzyl-1H-indole-3-carboxamide]?
Answer: melting point: 57 to 59 °C; Cytotoxic activity on C20 cells ([5]; 1 and 10 µM, any of the tested concentrations): did not exhibit cytotoxic activity; Cell viability of C20 cells [5]: a little increase in cell viability; BDNF levels in medium of C20 cells [6]: significant increase in BDNF levels; KA hCA I [1]: > 100 µM; KA hCA VII [2]: 7.5 µM; KA ratio [hCA VA/hCA VII] [3]: 3.2; KA hCA VA [3]: 24.4 µM; KA ratio [hCA II/hCA VII] [4]: > 13.3; KA hCA II [4]: > 100 µM

Question: Which “KA hCA I” value [1] does the source give for NCCc1c[nH]cn1 [Histamine, reference compound] here?
Answer: 2.1 µM

Question: What about the “KA hCA VII” value [2] of the same compound?
Answer: 37.5 µM

Question: What about the “KA hCA VA” value [3] of the same compound?
Answer: 0.010 µM

Question: And the “KA hCA II” value [4]?
Answer: 125 µM

Question: Which results are given for CN(C)CCCOc1ccc2c(c1)c(C(=O)C(=O)NCCCO)cn2Cc1ccccc1 [Compound 3, 2-(5-(3-(Dimethylamino)propoxy)-1-benzyl-1H-indol-3-yl)-N-(3-hydroxypropyl)glyoxamide]?
Answer: melting point: 111 to 113 °C; KA hCA I [1]: > 100 µM; KA hCA VII [2]: 10.6 µM; KA ratio [hCA VA/hCA VII] [3]: 4.8; KA hCA VA [3]: 50.9 µM; hCA VA activation, judged in words [3]: poor activity; KA ratio [hCA II/hCA VII] [4]: > 9.4; KA hCA II [4]: > 100 µM
